This is an account of results in US6727232B2, “Nucleoside peptide antibiotics of AA-896” (Wyeth Holdings Corporation, priority 2001, dated 2004).

Holding throughout (experiment): Broth dilution MIC
Common to all, as to type: cell-based
In general terms: Dilution methods test growth across graded concentrations, often in twofold steps.

The subject of one test is P. rettgeri GC 4530. To be noted: Providencia rettgeri, GC4530; P. rettgeri GC 4530; Mueller-Hinton broth, 18 hours at 35° C.; read-out: Antimicrobial Activity (MIC). The method, boiled down: (§1)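 Mueller-Hinton broth, serial compound dilutions, bacterial inoculum; 18 h, 35° C. MIC = lowest concentration with no growth.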
The subject of the next test is K. pneumoniae GC 4534. To be noted: Klebsiella pneumoniae, GC4534; K. pneumoniae GC 4534; Mueller-Hinton broth, 18 hours at 35° C.; read-out: Antimicrobial Activity (MIC). The method, boiled down:
as §1

Another test deals with P. aeruginosa GC 4532. The note with it: Pseudomonas aeruginosa, GC4532; P. aeruginosa GC 4532; Mueller-Hinton broth, 18 hours at 35° C.; read-out: Antimicrobial Activity (MIC). A digest of the protocol: as §1
A further test has as its system E. faecalis GC 4555. The note with it: Enterococcus faecalis, GC4555; E. faecalis GC 4555; Mueller-Hinton broth, 18 hours at 35° C.; read-out: Antimicrobial Activity (MIC). The method, boiled down: as §1
The next test concerns CNS GC 4547. The note with it: CNS GC 4547; Mueller-Hinton broth, 18 hours at 35° C.; read-out: Antimicrobial Activity (MIC). The method, boiled down: as §1
The test system of the next test is CNS GC 4538. The note with it: CNS GC 4538; Mueller-Hinton broth, 18 hours at 35° C.; read-out: Antimicrobial Activity (MIC). The method, boiled down: as §1
The test system of a further test is S. aureus GC 1131. To be noted: Staphylococcus aureus, GC1131; S. aureus GC 1131; Mueller-Hinton broth, 18 hours at 35° C.; read-out: Antimicrobial Activity (MIC). The method, boiled down: as §1
The next test concerns P. aeruginosa GC 2214. To be noted: Pseudomonas aeruginosa, GC2214; P. aeruginosa GC 2214; Mueller-Hinton broth, 18 hours at 35° C.; read-out: Antimicrobial Activity (MIC). A digest of the protocol:
as §1

Another test relates to E. coli GC 2203. The note with it: Escherichia coli, GC2203; E. coli GC 2203; Mueller-Hinton broth, 18 hours at 35° C.; read-out: Antimicrobial Activity (MIC). The method, boiled down: as §1
The test system of a further test is E. cloacae GC 3783. The note with it: Enterobacter cloacae, GC3783; E. cloacae GC 3783; Mueller-Hinton broth, 18 hours at 35° C.; read-out: Antimicrobial Activity (MIC). A digest of the protocol:
as §1

A further test concerns E. faecalis GC 2242. To be noted: Enterococcus faecalis, GC2242; E. faecalis GC 2242; Mueller-Hinton broth, 18 hours at 35° C.; read-out: Antimicrobial Activity (MIC). The method, boiled down: as §1
The subject of the next test is S. aureus GC 4536. The note with it: Staphylococcus aureus, GC4536; S. aureus GC 4536; Mueller-Hinton broth, 18 hours at 35° C.; read-out: Antimicrobial Activity (MIC). The method, boiled down:
as §1

The next test deals with M. morganii GC 4531. To be noted: Morganella morganii, GC4531; M. morganii GC 4531; Mueller-Hinton broth, 18 hours at 35° C.; read-out: Antimicrobial Activity (MIC). The method, boiled down:
as §1

In another test the test system is E. faecalis GC 842. The note with it: Enterococcus faecalis, GC842; E. faecalis GC 842; Mueller-Hinton broth, 18 hours at 35° C.; read-out: Antimicrobial Activity (MIC). A digest of the protocol:
as §1

The next test has as its system E. coli GC 4559. The note with it: Escherichia coli, GC4559; E. coli GC 4559; Mueller-Hinton broth, 18 hours at 35° C.; read-out: Antimicrobial Activity (MIC). The method, boiled down:
as §1

Another test concerns S. aureus GC 2216. The note with it: Staphylococcus aureus, GC2216; S. aureus GC 2216; Mueller-Hinton broth, 18 hours at 35° C.; read-out: Antimicrobial Activity (MIC). The method, boiled down: as §1
Another test has as its system S. marcescens GC 4077. To be noted: Serratia marcescens, GC4077; S. marcescens GC 4077; Mueller-Hinton broth, 18 hours at 35° C.; read-out: Antimicrobial Activity (MIC). The method, boiled down:
as §1

Another test concerns E. coli GC 4560. To be noted: Escherichia coli, GC4560, 18 h, read-out: Antimicrobial Activity (MIC). A digest of the protocol: as §1
A further test concerns CNS GC 4537. The note with it: CNS GC 4537; Mueller-Hinton broth, 18 hours at 35° C.; read-out: Antimicrobial Activity (MIC). A digest of the protocol:
as §1

For a further test, the system named is E. coli GC 3226. The note with it: Escherichia coli, GC3226; E. coli GC 3226; Mueller-Hinton broth, 18 hours at 35° C.; read-out: Antimicrobial Activity (MIC). A digest of the protocol:
as §1

For orientation: MIC means the smallest concentration in the dilution series that meets the test's criterion for growth inhibition.

In brackets after ≈: the same amount, converted by molar mass.

For `CO[C@H]1C(O[C@H](C(C(=O)O)N(CCCNC(=O)C(NC(=O)C(NC(=O)NC(C(=O)O)C(C)C)C2CCNC(=N)N2)C(O)C(C)C)Cc2ccccc2)[C@H]2O[C@@H](n3ccc(=O)[nH]c3=O)[C@H](O)[C@@H]2O)O[C@H](CNCc2ccccc2)[C@@H]1O` (stereo partly drawn) [Example 20B, 15-Benzyl-16-((R)-({(3R,4S,5R)-5-[(benzylamino)methyl]-4-hydroxy-3-methoxytetrahydro-2-furanyl}oxy){(2S,3S,4R,5R)-5-[2,4-dioxo-3,4-dihydro-1 (2H)-pyrimidinyl]-3,4-dihydroxytetrahydro-2-furanyl}methyl)-9-(1-hydroxy-2-methylpropyl)-6-(2-iminohexahydro-4-pyrimidinyl)-2-isopropyl-4,7,10-trioxo-3,5,8,11,15-pentaazaheptadecane-1,17-dioic Acid], the MIC with P. rettgeri GC 4530, with K. pneumoniae GC 4534, in the test with P. aeruginosa GC 4532, with E. faecalis GC 4555, in the test with CNS GC 4547 and with CNS GC 4538 was more than 32 µg/mL throughout. Besides, the MIC in the test with S. aureus GC 1131, with P. aeruginosa GC 2214, in the test on E. coli GC 2203, in the test with E. cloacae GC 3783, with E. faecalis GC 2242 and in the test with S. aureus GC 4536 was more than 32 µg/mL each time. In addition, the MIC with M. morganii GC 4531 was more than 32 µg/mL; in the test on E. faecalis GC 842 it was more than 32 µg/mL; in the test on E. coli GC 4559, more than 32 µg/mL; in the test with S. aureus GC 2216, more than 32 µg/mL; with S. marcescens GC 4077 it was more than 32 µg/mL; in the test with E. coli GC 4560 it was 32 µg/mL (≈ 28.4 µM). Also, the MIC with CNS GC 4537 and in the test with E. coli GC 3226 was more than 32 µg/mL in each case.
